Measured values as given in US20150320892A1, “IMAGING FIBROSIS” (GE Healthcare Limited, priority 2012, published 2015).
Where a name gives a salt, the structure may show the parent alone.

Key:
recombinant human FAP = molecular target: T1, recombinant human FAP (Homo sapiens, UniProt Q12884); assay: FAP assay kit (BPS Bioscience), inhibition of enzymatic activity, Gly-Pro-AMC fluorogenic substrate; format: biochemical; details: for IC50: recombinant human FAP, 30 min, 22° C
T1 construct: purchased BPS Bioscience
T1 sequence (Q12884 1-760): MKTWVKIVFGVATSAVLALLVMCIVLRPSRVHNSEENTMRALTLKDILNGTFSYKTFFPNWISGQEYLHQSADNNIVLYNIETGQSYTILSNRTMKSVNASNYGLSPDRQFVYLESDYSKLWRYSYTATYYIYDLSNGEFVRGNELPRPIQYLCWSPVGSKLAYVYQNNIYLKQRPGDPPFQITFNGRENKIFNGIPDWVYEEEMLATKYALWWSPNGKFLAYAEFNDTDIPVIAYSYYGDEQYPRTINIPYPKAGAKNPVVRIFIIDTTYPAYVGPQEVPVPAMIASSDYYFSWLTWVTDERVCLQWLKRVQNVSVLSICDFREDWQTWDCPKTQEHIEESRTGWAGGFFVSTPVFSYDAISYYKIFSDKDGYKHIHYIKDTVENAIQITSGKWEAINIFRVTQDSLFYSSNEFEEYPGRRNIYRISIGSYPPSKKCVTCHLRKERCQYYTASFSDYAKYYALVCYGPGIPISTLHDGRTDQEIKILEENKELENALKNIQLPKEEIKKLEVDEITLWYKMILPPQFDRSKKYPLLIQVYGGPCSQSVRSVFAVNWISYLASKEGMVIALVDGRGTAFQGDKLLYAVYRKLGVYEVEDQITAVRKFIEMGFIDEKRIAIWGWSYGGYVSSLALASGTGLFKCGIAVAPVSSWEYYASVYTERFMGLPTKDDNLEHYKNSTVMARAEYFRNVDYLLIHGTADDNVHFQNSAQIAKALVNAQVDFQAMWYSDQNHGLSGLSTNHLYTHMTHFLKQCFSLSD
Experimental: (§1) The assay uses the fluorogenic substrate Gly-Pro-Aminomethylcoumarin (AMC) to measure either FAP or DPP-IV activity.
(§2) The enzyme activities were assayed in a total volume of 100 uL for 10 min (DPP-IV) and 30 min (FAP) at 22° C. The inhibitors were dissolved in DMSO. IC50 values were computed using GraphPad Prism 4.

[1] = Biodistribution of 99mTc-Compound 2 in naive rats; parameters: species or system Male Sprague-Dawley rats; details: rat
Experimental: Male Sprague-Dawley rats (231±10 g) were group housed in batches of four, with ad libitum access to food and water. […] At various times post injection (2, 30, 60 and 120 minutes) animals were euthanised (n=3 per timepoint), dissected.
Data above are presented as % injected dose (mean±SD; n=3 animals per timepoint).

[2] = Metabolism study of Compound 2 in naive rats (plasma, HPLC); format: in vivo, male rats
Experimental: The in vivo metabolic profile of Compound 2 was determined after intravenous administration to male rats. Post mortem blood was obtained at 60 minutes post injection and centrifuged to separate plasma.
Analysis was carried out by HPLC with prior extraction of Compound 2 from plasma using solid phase extraction (HLB cartridges; Waters). Briefly, cartridges were conditioned with 5 ml, acetonitrile, followed by 2×5 mL water. Plasma was loaded onto the cartridge and then washed with water (2% acetonitrile). Compound 2 was eluted from the cartridge with 7.5 mL water (0.1% TFA) with acetonitrile (0.1% TFA) as a 50:50 ratio.
The extract was evaporated to dryness and reconstituted in 2 mL starting mobile phase (4% acetonitrile (0.1% TFA) and water (0.1% TFA).
0.5 mL of the reconstituted extract anlaysed by HPLC using the same analytical conditions as mentioned above in Example 3 for Compound 2.

recombinant human DPP-IV = molecular target: T2, recombinant human DPP-IV (Homo sapiens, UniProt P27487); assay: DPP-IV assay kit (BPS Bioscience), inhibition of enzymatic activity, Gly-Pro-AMC fluorogenic substrate; format: biochemical; details: 10 min, 22° C
T2 construct: purchased BPS Bioscience
T2 sequence (P27487 whole entry): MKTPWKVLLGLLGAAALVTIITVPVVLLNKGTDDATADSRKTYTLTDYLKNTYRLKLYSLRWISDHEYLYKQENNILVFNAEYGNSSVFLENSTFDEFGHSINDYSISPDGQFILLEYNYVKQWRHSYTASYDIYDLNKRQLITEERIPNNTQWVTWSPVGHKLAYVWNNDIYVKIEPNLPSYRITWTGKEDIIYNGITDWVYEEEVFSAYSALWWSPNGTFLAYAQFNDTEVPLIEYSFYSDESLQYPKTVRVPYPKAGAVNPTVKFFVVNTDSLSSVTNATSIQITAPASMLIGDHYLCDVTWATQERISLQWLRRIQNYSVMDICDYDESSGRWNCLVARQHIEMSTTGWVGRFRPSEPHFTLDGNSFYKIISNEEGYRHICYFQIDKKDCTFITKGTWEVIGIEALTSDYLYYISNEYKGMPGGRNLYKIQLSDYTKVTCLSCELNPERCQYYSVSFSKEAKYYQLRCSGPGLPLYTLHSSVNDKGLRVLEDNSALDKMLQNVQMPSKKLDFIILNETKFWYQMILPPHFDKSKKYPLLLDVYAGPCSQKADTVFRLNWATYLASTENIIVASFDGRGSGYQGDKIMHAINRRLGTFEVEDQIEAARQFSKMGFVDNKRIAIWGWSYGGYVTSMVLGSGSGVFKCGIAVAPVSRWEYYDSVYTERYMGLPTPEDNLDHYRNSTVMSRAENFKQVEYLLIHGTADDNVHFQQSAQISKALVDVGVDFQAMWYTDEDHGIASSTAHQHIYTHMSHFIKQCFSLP
Experimental: as §1, §2

Molecule | IC50 (recombinant human FAP) [µM] | IC50 (recombinant human DPP-IV) [µM] | also measured
N#Cc1ccc(NCCNCC(=O)N2CCCC2C#N)nc1 (centres unmarked) [DPP-IV reference, NVP DPP 728 hydrochloride, reference compound] | > 100 | – | –
NCCNCC(CNCCN)CC(=O)NCCCCCC(=O)NCC(=O)N1CCC[C@H]1B(O)O [Compound 2, (R) (1-(2-(6-(4-((2-aminoethyl)amino)-3-(((2-aminoethyl)amino)methyl)butanamido)hexanamido)acetyl)pyrrolidin-2-yl)boronic acid] | – | – | biodistribution for in vivo imaging purposes (in words) [1]: good biodistribution; Compound 2 still present in the plasma sample ([2]; male rats, intravenous, plasma 60 minutes after injection): Approximately 80%; in vivo metabolic profile (in words) ([2]; rat, in vivo): good in vivo metabolic profile
O=C(NCC(=O)N1CCC[C@H]1B(O)O)c1cccc2ccccc12 [FAP reference, (R)-(1-(2-(1-naphthamido)acetyl)pyrrolidin-2-yl)boronic acid, reference compound] | – | > 50 | –
(R)-(1-(2-(6-(4-((2-aminoethyl)amino)-3-(((2-aminoethyl)amino)methyl)butanamido)hexanamido)acetyl)pyrrolidin-2-yl)boronic acid, dioxorhenium(V)salt [Compound 1] | 0.009 | > 50 | affinity for FAP (in words) (recombinant human FAP; in vitro assay): high and selective affinity for FAP
